Test results reported in the supplement of paper PMC11061612.

Experiments:
[1] = system: NCI-H1568 (Lung Adenocarcinoma); test: combination Emax (second highest fraction inhibited in the dose matrix, 72 h); higher = more inhibition; extreme values may be limits of the assay
Outline: (§1)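 Cell lines grown in DMEM/F12 or RPMI with 10% FBS were plated in 1536-well plates and held 24 hours at 37°C, 5% CO2 before 72 hours of exposure to two-drug dose matrices, with DMSO typically at 0.2%. CellTiter-Glo 2.0 luminescence gave viability, which was converted to inhibition. Vehicle wells were set to 0 and blank wells to 1. Combination Emax is the second-highest inhibition in the matrix, and Bliss excess is the observed combination effect minus the expected EA + EB − EA·EB, where EA and EB are the single-agent effects.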

[2] = system: CAL-33 (Oral Cavity Carcinoma); test: as above
Outline: as §1

[3] = system: HuH-7 (Hepatocellular Carcinoma); test: as above
Outline: as §1

[4] = system: NCI-H2722 (Mesothelioma); test: as above
Outline: as §1

[5] = system: ALL-PO (B-Lymphoblastic Leukemia); test: as above
Outline: as §1

[6] = system: NCI-H209 (Small Cell Lung Carcinoma); test: as above
Outline: as §1

[7] = system: BPH-1 (Non-Cancerous); test: as above
Outline: as §1

[8] = system: L-428 (Hodgkin's Lymphoma); test: as above
Outline: as §1

[9] = system: BFTC-909 (Kidney Carcinoma); test: as above
Outline: as §1

[10] = system: Detroit562 (Head and Neck Carcinoma); test: as above
Outline: as §1

[11] = system: KMRC-20 (Kidney Carcinoma); test: as above
Outline: as §1

[12] = system: HeLa (Cervical Carcinoma); test: as above
Outline: as §1

[13] = system: MHH-CALL-2 (B-Lymphoblastic Leukemia); test: as above
Outline: as §1

[14] = system: LCLC-97TM1 (Non-Small Cell Lung Carcinoma); test: as above
Outline: as §1

[15] = system: NUGC-4 (Gastric Carcinoma); test: as above
Outline: as §1

[16] = system: SW1573 (Lung Adenocarcinoma); test: as above
Outline: as §1

[17] = system: NCI-H2052 (Mesothelioma); test: as above
Outline: as §1

[18] = system: OE21 (Esophageal Squamous Cell Carcinoma); test: as above
Outline: as §1

[19] = system: OV-56 (Ovarian Carcinoma); test: as above
Outline: as §1

[20] = system: Hs-746T (Gastric Carcinoma); test: as above
Outline: as §1

[21] = system: FTC-133 (Thyroid Gland Carcinoma); test: as above
Outline: as §1

[22] = system: BE2-M17 (Neuroblastoma); test: as above
Outline: as §1

[23] = system: NCI-H1568 (Lung Adenocarcinoma); test: Bliss excess, mean over the matrix (fraction); higher = more synergy
Outline: as §1

[24] = system: CAL-33 (Oral Cavity Carcinoma); test: as above
Outline: as §1

[25] = system: HuH-7 (Hepatocellular Carcinoma); test: as above
Outline: as §1

[26] = system: NCI-H2722 (Mesothelioma); test: as above
Outline: as §1

[27] = system: ALL-PO (B-Lymphoblastic Leukemia); test: as above
Outline: as §1

[28] = system: NCI-H209 (Small Cell Lung Carcinoma); test: as above
Outline: as §1

[29] = system: BPH-1 (Non-Cancerous); test: as above
Outline: as §1

[30] = system: L-428 (Hodgkin's Lymphoma); test: as above
Outline: as §1

[31] = system: BFTC-909 (Kidney Carcinoma); test: as above
Outline: as §1

[32] = system: Detroit562 (Head and Neck Carcinoma); test: as above
Outline: as §1

[33] = system: KMRC-20 (Kidney Carcinoma); test: as above
Outline: as §1

[34] = system: HeLa (Cervical Carcinoma); test: as above
Outline: as §1

[35] = system: MHH-CALL-2 (B-Lymphoblastic Leukemia); test: as above
Outline: as §1

[36] = system: LCLC-97TM1 (Non-Small Cell Lung Carcinoma); test: as above
Outline: as §1

[37] = system: NUGC-4 (Gastric Carcinoma); test: as above
Outline: as §1

[38] = system: SW1573 (Lung Adenocarcinoma); test: as above
Outline: as §1

[39] = system: NCI-H2052 (Mesothelioma); test: as above
Outline: as §1

[40] = system: OE21 (Esophageal Squamous Cell Carcinoma); test: as above
Outline: as §1

[41] = system: OV-56 (Ovarian Carcinoma); test: as above
Outline: as §1

[42] = system: Hs-746T (Gastric Carcinoma); test: as above
Outline: as §1

[43] = system: FTC-133 (Thyroid Gland Carcinoma); test: as above
Outline: as §1

[44] = system: BE2-M17 (Neuroblastoma); test: as above
Outline: as §1
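Throughout, for Bliss excess, mean over the matrix: after 72 h of two-drug dosing.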

With `CC(=O)c1c(C)c2cnc(Nc3ccc(N4CCNCC4)cn3)nc2n(C2CCCC2)c1=O` [Palbociclib] + CN(CC[C@H](CSC1=CC=CC=C1)NC2=C(C=C(C=C2)S(=O)(=O)NC(=O)C3=CC=C(C=C3)N4CCC(CC4)[C@H](C5=CC=CC=C5C6=CC=C(C=C6)Cl)O)S(=O)(=O)C(F)(F)F)CCO [AZD4320] (first compound max 10 µM, 7x7, partner max 1 µM) the “combination Emax” value [1] was 0.515, the “combination Emax” value [2] was 0.364 and the “combination Emax” value [3] was 0.309. The “combination Emax” value [4] was 0.283, the “combination Emax” value [5] was 1 and the “combination Emax” value [6] was 1. The “combination Emax” value [7] was 0.592, the “combination Emax” value [8] was 0.866 and the “combination Emax” value [9] was 0.55. For the same molecule, the “combination Emax” value [10] was 0.633, the “combination Emax” value [11] was 0.25 and the “combination Emax” value [12] was 0.117. For the same molecule, the “combination Emax” value [13] was 0.436, the “combination Emax” value [14] was 0.252 and the “combination Emax” value [15] was 0.411. For the same molecule, the “combination Emax” value [16] was 0.255, the “combination Emax” value [17] was 0.296 and the “combination Emax” value [18] was 0.663. The “combination Emax” value [19] was 0.289, the “combination Emax” value [20] was 0.408 and the “combination Emax” value [21] was 0.582. The “combination Emax” value [22] was 0.756, the Bliss excess [23] was -0.0747 and the Bliss excess [24] was -0.0398. For the same molecule, the Bliss excess [25] was -0.0254, the Bliss excess [26] was -0.0497 and the Bliss excess [27] was 0.0126. For the same molecule, the Bliss excess [28] was 0.0266, the Bliss excess [29] was -0.0818 and the Bliss excess [30] was -0.0128. The Bliss excess [31] was -0.0576, the Bliss excess [32] was 0.0001 and the Bliss excess [33] was -0.0504. It also gave a Bliss excess [34] of -0.0385, a Bliss excess [35] of -0.0428 and a Bliss excess [36] of -0.0326. The Bliss excess [37] was -0.0067, the Bliss excess [38] was -0.0486 and the Bliss excess [39] was -0.0159. For the same molecule, the Bliss excess [40] was 0.0269, the Bliss excess [41] was -0.062 and the Bliss excess [42] was -0.0386. It also gave a Bliss excess [43] of -0.0778 and a Bliss excess [44] of 0.0726.

With `C[C@@H](c1ccc2nccn2c1)n1nnc2ncc(-c3cnn(C)c3)nc21` [Savolitinib] + CN(CC[C@H](CSC1=CC=CC=C1)NC2=C(C=C(C=C2)S(=O)(=O)NC(=O)C3=CC=C(C=C3)N4CCC(CC4)[C@H](C5=CC=CC=C5C6=CC=C(C=C6)Cl)O)S(=O)(=O)C(F)(F)F)CCO [AZD4320] (first compound max 1 µM, 7x7, partner max 1 µM) the “combination Emax” value [1] was 0.256, the “combination Emax” value [2] was 0.222 and the “combination Emax” value [3] was 0.265. The “combination Emax” value [4] was 0.308, the “combination Emax” value [5] was 0.989 and the “combination Emax” value [6] was 1. The “combination Emax” value [7] was 0.346, the “combination Emax” value [8] was 0.773 and the “combination Emax” value [9] was 0.29. For the same molecule, the “combination Emax” value [10] was 0.237, the “combination Emax” value [11] was 0.184 and the “combination Emax” value [12] was 0.13. The “combination Emax” value [13] was 0.454, the “combination Emax” value [14] was 0.101 and the “combination Emax” value [15] was 0.262. For the same molecule, the “combination Emax” value [16] was 0.239, the “combination Emax” value [17] was 0.225 and the “combination Emax” value [18] was 0.101. For the same molecule, the “combination Emax” value [19] was 0.212, the “combination Emax” value [20] was 0.753 and the “combination Emax” value [21] was 0.546. The “combination Emax” value [22] was 0.305, the Bliss excess [23] was -0.0571 and the Bliss excess [24] was -0.0104. It also gave a Bliss excess [25] of -0.0064, a Bliss excess [26] of -0.0433 and a Bliss excess [27] of -0.0307. For the same molecule, the Bliss excess [28] was -0.0172, the Bliss excess [29] was -0.0802 and the Bliss excess [30] was -0.0726. It also gave a Bliss excess [31] of -0.0417, a Bliss excess [32] of -0.0189 and a Bliss excess [33] of -0.0048. The Bliss excess [34] was -0.0391, the Bliss excess [35] was -0.0252 and the Bliss excess [36] was -0.0311. For the same molecule, the Bliss excess [37] was -0.0363, the Bliss excess [38] was -0.0657 and the Bliss excess [39] was -0.0147. It also gave a Bliss excess [40] of -0.043, a Bliss excess [41] of -0.0078 and a Bliss excess [42] of -0.0049. It also gave a Bliss excess [43] of -0.056 and a Bliss excess [44] of -0.0337.
